Reference: publication PMC5171792 (Scientific Reports, 2016)
Read-outs that look alike come from different tables or passages of the source.

Legend:
H1N1 NA = H1N1 NA (Influenza A virus (H1N1), UniProt C3W5S3); test: biochemical; format: biochemical
[1] = system: A/Malaysia/Muar/33/2009 (H1N1); test: Antiviral (virus inhibition) assay in MDCK cells, plaque reduction; format: cell-based; settings: Influenza A virus
in vitro = settings: dog
MDCK cells [2] = test: Cell cytotoxicity, cell proliferation assay with WST-1 reagent
MDCK cells [3] = system: MDCK cells

Structure (SMILES) | ΔGbind (estimated experimental) (H1N1 NA) | EC50 [1] | CC50 (in vitro) | also measured
CC(=O)N[C@H]1[C@H]([C@H](O)[C@H](O)CO)OC(C(=O)O)=C[C@@H]1O [DANA, 2-deoxy-2,3-didehydro-N-acetylneuraminic acid, reference compound] | -6.50 kcal/mol | – | – | –
COc1cc(/C=C/C(=O)O)ccc1O [FA, Ferulic acid, reference compound] | -5.02 kcal/mol | 1.32 ± 0.08 µM | – | inhibition at 125 µg/mL (H1N1 NA; read-out: % inhibition of H1N1 NA): 86%; CC50 (in vitro; MDCK cells): 702 µM; toxicity on the MDCK cells (MDCK cells [2]): without showing any signs of toxicity at high concentrations
CCOC(=O)/C=C/c1cc(OC)c(O)c([N+](=O)[O-])c1 [MY2] | -4.70 kcal/mol | – | – | –
CCOC(=O)/C=C/c1cc(OC)c(OC(C)C)c([N+](=O)[O-])c1 [MY3] | -5.27 kcal/mol | 7.5 ± 9.3 µM | 321 µM | toxicity on the MDCK cells (MDCK cells [3]): without showing any signs of toxicity at high concentrations
COC(=O)/C=C/c1ccc(O)c(OC)c1 [MY9] | -4.85 kcal/mol | – | – | –
CCOC(=O)/C=C/c1ccc(O)c(OC)c1 [MY10] | -4.42 kcal/mol | – | – | –
CCCOC(=O)/C=C/c1ccc(O)c(OC)c1 [MY11] | -4.36 kcal/mol | – | – | –
CCCCOC(=O)/C=C/c1ccc(O)c(OC)c1 [MY12] | -3.91 kcal/mol | – | – | –
COC(=O)/C=C/c1cc(OC)c(O)c([N+](=O)[O-])c1 [MY13] | -4.19 kcal/mol | – | – | –
CCCOC(=O)/C=C/c1cc(OC)c(O)c([N+](=O)[O-])c1 [MY14] | -4.76 kcal/mol | – | – | –
CCCCOC(=O)/C=C/c1cc(OC)c(O)c([N+](=O)[O-])c1 [MY15] | -3.91 kcal/mol | ~0.95 µM | 352 µM | toxicity on the MDCK cells (MDCK cells [3]): without showing any signs of toxicity at high concentrations
COc1cccc(S(=O)(=O)c2ccc(/C=C/C(=O)O)cc2OC)c1 [MY18] | -3.91 kcal/mol | – | – | –
COc1ccc(S(=O)(=O)c2ccc(/C=C/C(=O)O)cc2OC)cc1 [MY19] | -4.38 kcal/mol | – | – | –
COc1cc(/C=C/C(=O)O)ccc1S(=O)(=O)c1ccc(Oc2ccccc2)cc1 [MY20] | -3.91 kcal/mol | – | – | –
COc1cc(C=O)cc(N=C(N)N)c1O [MY21, guanidino vanillin] | -5.60 kcal/mol | 1.7 ± 0.02 µM | 478 µM | toxicity on the MDCK cells (MDCK cells [3]): without showing any signs of toxicity at high concentrations
COc1cc(C=O)cc(NCCO)c1O [MY22] | -4.67 kcal/mol | – | – | –
COc1cc(C=O)cc(O)c1O [MY23, 3-hydroxyvanillin] | -5.43 kcal/mol | 40.5 ± 3.7 µM | 601 µM | % inhibition of H1N1 NA (H1N1 NA): high inhibition; toxicity on the MDCK cells (MDCK cells [3]): significant reduction in cell viability
COc1c(O)ccc(/C=C/C(=O)O)c1[N+](=O)[O-] [MY24] | -4.31 kcal/mol | – | – | melting point: 165 to 169 °C
CCC(CC)O[C@@H]1C=C(C(=O)O)C[C@H](N)[C@H]1NC(C)=O [Oseltamivir carboxylate, reference compound] | – | 35 µM | 351 µM | –
COc1cc(C=O)ccc1O [VN, Vanillin, reference compound] | -4.78 kcal/mol | 6.05 ± 4.3 µM | 657 µM | toxicity on the MDCK cells (MDCK cells [3]): without showing any signs of toxicity at high concentrations
